Test results published in patent US4206215A, “Antimicrobial bis-[4-(substituted-amino)-1-pyridinium]alkanes” (Sterling Drug Inc., priority 1977, dated 1980).
Read-outs that look alike come from different tables or passages of the source.

Key:
[1] = system: S. Aureus Smith; assay: In vitro antibacterial activity, MIC (modified Autotiter method); type: cell-based, Staphylococcus aureus; details: 18-20 hours at 37° C.
In short: (§1)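 Compounds are diluted serially by twofold steps in sterile water using the Autotiter, beginning with a 1,000 mcg./ml. solution; addition of inoculated double-strength semisynthetic medium with glucose yields final concentrations between 500 and 0.06 mcg./ml.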

[2] = system: E. coli 100/B22; assay: as above; type: cell-based, Escherichia coli; details: 18-20 hours at 37° C.
In short: as §1

[3] = system: E. coli AB1932-1; assay: as above; type: cell-based, Escherichia coli; details: 18-20 hours at 37° C.
In short: as §1

[4] = system: E. coli Vogel; assay: as above; type: cell-based, Escherichia coli; details: 18-20 hours at 37° C.
In short: as §1

[5] = system: K. pneum. 39645; assay: as above; type: cell-based, Klebsiella pneumoniae; details: 18-20 hours at 37° C.
In short: as §1

[6] = system: P. mirab. MGH-1; assay: as above; type: cell-based, Proteus mirabilis; details: 18-20 hours at 37° C.
In short: as §1

[7] = system: Ps. aerug. MGH-2; assay: as above; type: cell-based, Pseudomonas aeruginosa; details: 18-20 hours at 37° C.
In short: as §1

[8] = system: S. pyogen. C203; assay: as above; type: cell-based, Streptococcus pyogenes; details: 18-20 hours at 37° C.
In short: as §1

[9] = system: A. niger 16404; assay: In vitro antifungal activity, MIC (modified Autotiter method); type: cell-based, Aspergillus niger; details: 18-20 hours at 37° C.
In short: as §1

[10] = system: C. albicans 10231; assay: as above; type: cell-based, Candida albicans; details: 18-20 hours at 37° C.
In short: as §1

[11] = system: C. albicans Wisc.; assay: as above; type: cell-based, Candida albicans; details: 18-20 hours at 37° C.
In short: as §1

[12] = system: T. menta. 9129; assay: as above; type: cell-based, Trichophyton mentagrophytes; details: 18-20 hours at 37° C.
In short: as §1

[13] = system: S. Aureus ATCC 6538; assay: Effect of serum on bacteriostatic activity (serial tube dilution test); type: cell-based, Staphyloccocus aureus; details: for MIC: Staphylococcus aureus, ATCC6538
[14] = system: E. Coli ATCC 8739; assay: as above; type: cell-based, Escherichia coli; details: for MIC: Escherichia coli, ATCC8739
In short: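 Bacteriostatic potency against Escherichia coli ATCC 8739 was measured with the standard serial tube dilution test. Minimum inhibitory concentrations were determined in pairs, with the test medium either lacking serum or containing 40% horse serum heat-inactivated at 56° C. for 30 min. Serum impact was reported as the fold increase in MIC (mcg./ml.).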

[15] = system: Streptococcus mutans OMZ-61; assay: Dental plaque-preventive effectiveness in the presence of sterile human saliva (50%); type: cell-based; details: 50% sterile human saliva
Protocol: The dental plaque preventive activity of certain of the compounds of the present invention was determined by measuring the ability of these compounds to inhibit the production of dental plaque by Streptococcus mutans OMZ-61 as follows:
A culture medium for the plaque-producing Streptococcus mutans OMZ-61 containing 1.5 g. of BBL beef extract, 5 g. of sodium chloride, 10 g. of dehydrated trypticase, 5 g. of sucrose and sufficient distilled water to give a total volume of 1000 ml. is adjusted to pH 7.0 and sterilized by membrane filtration. The medium is dispensed aseptically in 10-ml. aliquots into 150×16 mm. test tubes and stored at refrigeration temperature until used.
Two concentrations of the compound to be tested are prepared by dissolving 100 mg. of the compound in 1 ml. of distilled water with the aid of sufficient 0.1 N sodium hydroxide, 10% dimethylsulfoxide or 10% N,N-dimethylformamide and diluting the resulting solution to 10 ml. with distilled water. This 1.0% solution and a 1:10 dilution in distilled water (0.1%) are sterilized by membrane filtration before use.
A sterile piece of plaque-free natural tooth enamel or synthetic hydroxylapatite is suspended in each concentration of compound for two 1-minute periods, each followed by a 1-minute air drying period. Each piece is then suspended and agitated for 5 minutes in individual test tubes containing sterile distilled water (rinse). They are then suspended in 10 ml. of liquid beef extract medium to which has been added 0.3 ml. of a 24-hr. anaerobic culture of Streptococcus mutans. The tubes containing the "treated" hydroxylapatite and the Streptococcus mutans are then incubated anaerobically at 37° C. for 24 hours. The same process of two 1-minute soaks in the solution of compound, each followed by 1 minute of air drying and the final 5-minute rinse is repeated before once again suspending the hydroxylapatite in a fresh tube containing 10 ml. of beef extract medium and 0.3 ml. of inoculum. At the end of the second 24-hour period, each piece of hydroxylapatite is rinsed for 1 minute in 3 successive tubes of distilled water. These are then suspended for 1 minute in a solution of F, D & C Red No. 3 dye. This staining procedure is used in order to identify more easily the development of plaque after the 48-hour period of exposure to the plaque-producing organism. The staining period is followed by another 10-second rinse to remove excess dye. Any plaque formation stains a brilliant pink. […] Active compounds are tested at successively lower doses in order to determine the minimum effective concentration. On some occasions, the interference of plaque production is caused by the inhibition of growth of the organism in the culture medium because the compound has been leached from the hydroxylapatite to produce an antibacterial level in the medium. When this occurs, the compound is tested at lower concentrations until the growth of the organism in the surrounding medium is equal to that in the nonmedicated control culture. Plaque may or may not be formed at these lower concentrations.
Dental plaque-preventive effectiveness in the presence of sterile human saliva (50%) was determined for representative examples.

[16] = system: Herpes simplex type 2 virus; assay: Virucidal activity in vitro (plaque inhibition test); type: cell-based; details: 2 mg. of test compound on growth medium
Protocol: Virucidal activity of representative examples against Herpes simplex type 2 virus was determined in vitro employing a procedure similar to the plaque inhibition test for detection of specific inhibitors of DNA-containing viruses published by E. C. Herrmann, Jr., Proc. Soc. Exp. Biol. Med. 107, 142 (1961) wherein 2 mg. of the test compound was placed on the surface of the growth medium.

[17] = Acute oral toxicity (ALD50); type: in vivo; details: mouse, in vivo, po, mice, suspension in 1% gum tragacanth; read-out: 7-Day ALD50
Protocol: (§2) The acute oral toxicity (ALD50) of several representative examples was determined as follows: Groups of 3 young adult male Swiss-Webster strain albino mice were fasted approximately 4 hours before medication and then medicated once orally by stomach tube.

[18] = system: young adult male Swiss-Webster strain albino mice; assay: Acute oral toxicity (ALD50); type: in vivo; details: suspension in 1% G.T.
Protocol: as §2

[19] = 25 mg/kg (so in the source) oral

## CCCCCCCCNc1cc[n+](CCCCCCCCCC[n+]2ccc(NCCCCCCCC)cc2)cc1 [Example 9D, 1,10-bis-[4-(octylamino)-1-pyridinium]decane dibromide]
[1]
  MIC S. Aureus Smith: 0.5 µg/mL
[2]
  MIC E. coli 100/B22: 1.95 µg/mL
[3]
  MIC E. coli AB1932-1: 1.0 µg/mL
[4]
  MIC E. coli Vogel: 1.95 µg/mL
[5]
  MIC K. pneum. 39645: 3.9 µg/mL
[6]
  MIC P. mirab. MGH-1: 3.9 µg/mL
[7]
  MIC Ps. aerug. MGH-2: 3.9 µg/mL
[8]
  MIC S. pyogen. C203: 0.5 µg/mL
[9]
  MIC A. niger 16404: 1.95 µg/mL
[10]
  MIC C. albicans 10231: 1.0 µg/mL
[11]
  MIC C. albicans Wisc.: 1.0 µg/mL
[12]
  MIC T. menta. 9129: 1.0 µg/mL
[13]; 40% vs 0% horse serum
  Fold Increase in MIC S. Aureus ATCC 6538: 16 fold
[13]; 40% heat inactivated horse serum, read-out: MIC S. Aureus ATCC 6538 40% Serum
  MIC: 7.8 µg/mL
[13]; read-out: MIC S. Aureus ATCC 6538 0% Serum
  MIC: 0.5 µg/mL
[14]; 40% vs 0% horse serum
  Fold Increase in MIC E. Coli ATCC 8739: 64 fold
[14]; 40% heat inactivated horse serum, read-out: MIC E. Coli ATCC 8739 40% Serum
  MIC: 62.5 µg/mL
[14]; read-out: MIC E. Coli ATCC 8739 0% Serum
  MIC: 1 µg/mL
[15]
  Dental Plaque Preventive Activity in 50% saliva Minimum Effective Conc. (%): Ca. 0.005%
[16]
  Virucidal activity against Herpes simplex type 2 virus: active
[17]
  LD50 at 168 h: > 1000 mg/kg
[18]; [19]
  Mortality 7 Days: 0/3
  Mortality 24 Hrs: 0/3
[18]; 250 mg/kg oral
  Mortality 7 Days: 0/3
  Mortality 24 Hrs: 0/3
[18]; 500 mg/kg oral
  Mortality 7 Days: 0/3
  Mortality 24 Hrs: 0/3
[18]; 1000 mg/kg oral
  Mortality 7 Days: 0/3
  Mortality 24 Hrs: 0/3
